Entries after “also recorded” stand apart in the source; their conditions may differ.

For assay [1], the system named is endosymbiotic Buchnera. Description: Buchnera/aphid DNA copy numbers by qPCR. It is filed as in vivo, Buchnera aphidicola. As to the method:
After 7 days of treatment, DNA was extracted from multiple aphids from each treatment group. Briefly, the aphid body surface was sterilized by dipping the aphid into a 6% bleach solution for approximately 5 seconds. Aphids were then rinsed in sterile water and DNA was extracted from each individual aphid using a DNA extraction kit (Qiagen, DNeasy kit) according to manufacturer's instructions. DNA concentration was measured using a nanodrop nucleic acid quantification, and Buchnera and aphid DNA copy numbers were measured by qPCR. […]
After 8 days of treatment, DNA was extracted from multiple aphids from each treatment group. Briefly, the aphid body surface was sterilized by dipping the aphid into a 6% bleach solution for approximately 5 seconds. Aphids were then rinsed in sterile water and DNA was extracted from each individual aphid using a DNA extraction kit (Qiagen, DNeasy kit) according to manufacturer's instructions. DNA concentration was measured using a nanodrop nucleic acid quantification, and Buchnera and aphid DNA copy numbers were measured by qPCR.
After 8 days of treatment, DNA was extracted from the remaining aphids in each treatment group. Briefly, the aphid body surface was sterilized by dipping the aphid into a 6% bleach solution for approximately 5 seconds. Aphids were then rinsed in sterile water and DNA was extracted from each individual aphid using a DNA extraction kit (Qiagen, DNeasy kit) according to manufacturer's instructions. DNA concentration was measured using a nanodrop nucleic acid quantification, and Buchnera and aphid DNA copy numbers were measured by qPCR.
After 7 of treatment, DNA was extracted from the remaining aphids in each treatment group. Briefly, the aphid body surface was sterilized by dipping the aphid into a 6% bleach solution for approximately 5 seconds. Aphids were then rinsed in sterile water and DNA was extracted from each individual aphid using a DNA extraction kit (Qiagen, DNeasy kit) according to manufacturer's instructions. DNA concentration was measured using a nanodrop nucleic acid quantification, and Buchnera and aphid DNA copy numbers were measured by qPCR.
Briefly, the aphid body surface was sterilized by dipping the aphid into a 6% bleach solution for approximately 5 seconds. Aphids were then rinsed in sterile water and DNA was extracted from each individual aphid using a DNA extraction kit (Qiagen, DNeasy kit) according to manufacturer's instructions. DNA concentration was measured using a nanodrop nucleic acid quantification, and Buchnera and aphid DNA copy numbers were measured by qPCR.
After 3 days of treatment, DNA was extracted from the remaining living aphids from each treatment group. Briefly, the aphid body surface was sterilized by dipping the aphid into a 6% bleach solution for approximately 5 seconds. Aphids were then rinsed in sterile water and DNA was extracted from each individual aphid using a DNA extraction kit (Qiagen, DNeasy kit) according to manufacturer's instructions. DNA concentration was measured using a nanodrop nucleic acid quantification, and Buchnera and aphid DNA copy numbers were measured by qPCR. […]
On the technique in general: Quantitative PCR measures a nucleic acid by following its amplification.

Assay [2] relates to Acyrthosiphon pisum aphids. Description: Aphid survival monitoring. It is filed as in vivo.
Assay [3] deals with Acyrthosiphon pisum aphids. Description: Aphid developmental stage monitoring. It is filed as in vivo. As to conditions: for aphids that did not mature further than the 4th instar stage: eNASCO, 11 days post-treatment.
Assay [4] concerns gram-negative and gram-positive organisms. As to conditions: cited from earlier work.
The test system of assay [5] is gram-negative and gram-positive bacteria as well as fungi. As to conditions: cited from earlier work.
The mark [6] stands for this setting: LSR-1, 100 μg/ml rifampicin in artificial diet without essential amino acids, through plants.

Take `Cc1cc2c(C(C)C)c(O)c(O)c(C=O)c2c(O)c1-c1c(C)cc2c(C(C)C)c(O)c(O)c(C=O)c2c1O` [gossypol, gossypol acetic acid]: the “Buchnera/aphid DNA copies, fold less than control” value in assay [1] (0.25 and 0.5% of gossypol, 5 or 13 days) is listed as ~4 -fold less. In addition, in assay [2] (0.5% gossypol), the “all aphids succumbed to treatment by” value is recorded as ≤ 4 days and the “aphids began dying after” value is recorded as 2 days.

Take `CC(=O)CCC(=O)O` [levulinic acid]: the “Buchnera/aphid DNA copies, fold less than control” value in assay [1] (0.03 or 0.3% levulinic acid in water, 7 days) is given as ~6 -fold less. In addition, the Buchnera/aphid ratio entry in assay [1] (0.03 or 0.3% levulinic acid, seven and eleven days post-treatment) is given as “reduced endosymbiotic Buchnera”. The aphid mortality result in assay [2] (eNASCO, 0.03% levulinic acid, difference did not reach statistical significance) is listed as “higher mortality compared to control treated aphids”. Moreover, the aphid survival result in assay [2] (eNASCO, 0.03 or 0.3% levulinic acid) is “dose-dependent decrease in survival; also recorded: decrease in insect survival”; in assay [2] (eNASCO, 0.3% levulinic acid, 11-day experiment), “survival was significantly less”. Besides, in assay [3] (eNASCO 1st and 2nd instar, 0.03 or 0.3% levulinic acid, leaf injection and through plant), the aphid developmental stage entry is given as “Development was delayed; also recorded: resulted in delayed aphid development”. Further, the “aphids that did not mature further than the 4th instar stage” value is listed as ~23% in assay [3] (0.03% levulinic acid) and ~63% in assay [3] (0.3% levulinic acid).

With `CO[C@H]1/C=C/O[C@@]2(C)Oc3c(C)c(O)c4c(O)c(c(/C=N/N5CCN(C)CC5)c(O)c4c3C2=O)NC(=O)/C(C)=C\C=C\[C@H](C)[C@H](O)[C@@H](C)[C@@H](O)[C@@H](C)[C@H](OC(C)=O)[C@@H]1C` [rifampicin, reference compound], the “Buchnera/aphid DNA copies, fold less than control” value in assay [1] (LSR-1, 100 μg/ml rifampicin through plants, 7 days of treatment) was ~4 -fold less. Further, in assay [2] (setting [6]), the “all aphids succumbed to treatment by” value is given as ≤ 9 days and the “aphids began dying after” value worked out at 1 days.

As to `O=C/C=C/c1ccccc1` [trans-cinnemaldehyde], in assay [1] (0.5 and 5% of trans-cinnemaldehyde, 3 days), the “Buchnera/aphid DNA copies, fold less than control” value is on record as ~870 -fold less. For the same molecule, the “Buchnera/aphid DNA copies” value in assay [1] (lowest concentration of trans-cinnemaldehyde (0.5%), 3 days) is on record as “high ratios of Buchnera/aphid DNA copies”. For the same molecule, the “Buchnera/aphid DNA (symbiont titer)” value in assay [1] (trans-cinnemaldehyde 0.05%, 0.5%, 5%, 3 days post-treatment) is reported as “reduced endosymbiotic Buchnera”. Also, the antimicrobial activity result in assay [4] was “antimicrobial activity against both gram-negative and gram-positive organisms”. Also, the aphid survival rate result in assay [2] (0.05%, 0.5%, and 5% trans-cinnemaldehyde, 3 days) was “dose-dependent decrease in survival; also recorded: significantly lower”. Further, the aphid developmental stage entry was “remained at the 1st instar stage throughout the course of the experiment” in assay [3] (5% trans-cinnemaldehyde); “none of the aphids matured past the second instar stage” in assay [3] (LSR-1 1st and 2nd instar, trans-cinnemaldehyde 0.05%, 0.5%, 5% in water, leaf perfusion and through plants, 3 days); “resulted in delayed aphid development” in assay [3] (LSR-1 1st and 2nd instar, trans-cinnemaldehyde 0.05%, 0.5%, 5% in water, leaf perfusion and through plants, 3 days, listed as Trans-cinnemaldehyde).

B1: NCR335: cationic NCR peptide (peptide)
chain: MQIGKNMVETPKLDYVIIFFFLYFFFRQMIILRLNTTFRPLNFKMLRFWGQNRNIMKHRGQKVHFSLILSDCKTNKDCPKLRRANVRCRKSYCVPI
As for B1, the antimicrobial activities result in assay [5] was “effective against gram-negative and gram-positive bacteria as well as fungi”.
